± gives the expanded uncertainty stated by the source.
Details: 101.33 kPa, Liquid, Falling or rolling sphere viscometry

Row | SMILES | viscosity (298.15 K) | viscosity (308.15 K) | viscosity (318.15 K) | viscosity (328.15 K) | viscosity (338.15 K) | viscosity (348.15 K)
1 | COCC[N+]1(C)CCCCC1.O=S(=O)([N-]S(=O)(=O)C(F)(F)F)C(F)(F)F | 102.6 ± 3.1 mPa·s | 63.22 ± 1.4 mPa·s | 41.92 ± 0.91 mPa·s | 29.43 ± 0.64 mPa·s | 21.53 ± 0.46 mPa·s | 16.32 ± 0.35 mPa·s
2 | COCC[N+]1(C)CCOCC1.O=S(=O)([N-]S(=O)(=O)C(F)(F)F)C(F)(F)F | 306.1 ± 19 mPa·s | 155.9 ± 6.4 mPa·s | 90.68 ± 2.5 mPa·s | 57.23 ± 1.2 mPa·s | 38.69 ± 0.84 mPa·s | 27.54 ± 0.6 mPa·s
3 | COCC[N+]1(C)CCCC1.O=S(=O)([N-]S(=O)(=O)C(F)(F)F)C(F)(F)F | 54.52 ± 1.1 mPa·s | 36.94 ± 0.8 mPa·s | 26.41 ± 0.57 mPa·s | 18.23 ± 0.39 mPa·s | 14.06 ± 0.3 mPa·s | 11.07 ± 0.24 mPa·s
